In PMC2661907, “The Proteasome Is a Molecular Target of Environmental Toxic Organotins” (Environmental Health Perspectives, 2008):

Biological target: T1, 20S proteasome (chymotrypsin-like activity, β5 subunit) (Oryctolagus cuniculus, UniProt G1T4Q9)
T1 construct: gene PSMB5; purified rabbit 20S proteasome; with other subunits of the 20S proteasome
T1 sequence (G1T4Q9 1-263): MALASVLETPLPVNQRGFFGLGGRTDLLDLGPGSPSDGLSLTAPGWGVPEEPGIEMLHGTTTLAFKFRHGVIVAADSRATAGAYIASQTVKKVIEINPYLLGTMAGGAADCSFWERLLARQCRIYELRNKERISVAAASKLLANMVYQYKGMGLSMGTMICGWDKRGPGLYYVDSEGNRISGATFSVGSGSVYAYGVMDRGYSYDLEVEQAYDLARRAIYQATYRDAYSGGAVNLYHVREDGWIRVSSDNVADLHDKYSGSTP
Assay: fluorogenic peptide CT-like activity assay on purified
Format: biochemical

For CCC[CH2][Sn]([Cl])([CH2]CCC)[CH2]CCC [TBT, tributyltin chloride], the IC50 was 15.6 µM.
